Test results as given in patent publication US20230159467A1, “NOVEL COMPOUNDS USEFUL IN THE TREATMENT AND/OR PREVENTION OF A DISEASE, DISORDER OR CONDITION ASSOCIATED WITH ANGIOTENSIN II” (Vicore Pharma AB, priority 2020, published 2023).

Columns and labels:
human AT2R = target: T1, human AT2R (Homo sapiens, UniProt P50052); assay type: binding; conditions: HEK-293 cell membranes
T1 construct: host or cells: HEK-293
T1 sequence (P50052 1-363): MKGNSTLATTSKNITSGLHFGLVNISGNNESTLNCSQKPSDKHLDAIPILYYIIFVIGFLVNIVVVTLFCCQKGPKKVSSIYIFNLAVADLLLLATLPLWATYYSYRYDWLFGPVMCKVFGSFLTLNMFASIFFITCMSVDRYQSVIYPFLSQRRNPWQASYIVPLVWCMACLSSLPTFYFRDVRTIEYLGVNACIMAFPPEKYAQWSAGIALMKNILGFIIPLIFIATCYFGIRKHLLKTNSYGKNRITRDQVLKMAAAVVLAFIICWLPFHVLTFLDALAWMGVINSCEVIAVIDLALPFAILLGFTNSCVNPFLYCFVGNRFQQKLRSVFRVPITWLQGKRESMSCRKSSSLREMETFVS

human AT1R = target: T2, human AT1R (Homo sapiens, UniProt P30556); assay type: binding; conditions: HEK-293 cell membranes
T2 construct: host or cells: HEK-293
T2 sequence (P30556 1-359): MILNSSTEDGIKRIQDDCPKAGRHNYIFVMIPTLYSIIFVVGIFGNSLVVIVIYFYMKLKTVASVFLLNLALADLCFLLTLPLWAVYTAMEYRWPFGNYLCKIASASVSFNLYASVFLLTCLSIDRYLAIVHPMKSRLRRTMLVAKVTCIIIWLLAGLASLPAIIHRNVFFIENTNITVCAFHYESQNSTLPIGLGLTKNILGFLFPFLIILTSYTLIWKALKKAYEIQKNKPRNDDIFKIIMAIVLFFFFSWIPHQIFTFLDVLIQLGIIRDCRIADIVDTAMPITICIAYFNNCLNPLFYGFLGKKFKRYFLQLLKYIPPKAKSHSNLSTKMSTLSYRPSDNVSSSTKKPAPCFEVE

[1] = Stability in human liver microsomes; assay type: in vitro ADME; conditions: half-life
Description: Stability in liver microsomes. Human, mouse and rat liver microsomes were used to assess the metabolic stability for the compounds. Metabolic stability was determined in 0.5 mg/mL human, mouse or rat liver microsomes at a compound concentration of 1 μM in 100 mM potassium phosphate buffer (pH 7.4) in a total incubation volume of 500 μL by Eurofins. The assay matrix was: human liver microsomes: mixed gender and pool of 50, rat liver microsomes: male, Sprague-Dawley, pool of 100 or more and mouse liver microsomes: male,CD-1, pool of 250 or more. Final microsomal protein concentration: 0.1mg/mL. The test concentration was 0.1 μM with 0.01% DMSO, 0.25% acetonitrile and 0.25% methanol by default. […] The reaction was initiated by adding NADPH-generating system and was incubated for 0, 15, 30, 45, and 60 min. The reaction was stopped by transferring the incubation mixture to acetonitrile/methanol. Samples were then mixed and centrifuged. Four reference compounds were tested in each assay. Propranolol and imipramine are relatively stable, whereas verapamil and terfenadine are readily metabolized inhuman liver microsomes. Samples were analyzed by HPLC-MS/MS using selected reaction monitoring. The HPLC system consisted of a binary LC pump with autosampler, a C-18 column, and a gradient. Peak areas corresponding to the test compound were recorded. The compound remaining was calculated by comparing the peak area at each time point to time zero. The half-life was calculated from the slope of the initial linear range of the logarithmic curve of compound remaining (%) vs. time, assuming first order kinetics. In addition, the intrinsic clearance (Clint) was calculated.^19,20

Ki (human AT2R)	Ki (human AT1R)	Stability in liver microsomes HLM [1]	Structure (SMILES)
4.6 nM	1000 nM	>60 min	CCCc1ccc(S(=O)(=O)[N-]C(=O)OC)c(-c2ccc(Cn3ccnc3C(C)(C)O)cc2)c1.[K+] [Example 30B, Potassium (methoxycarbonyl) ((4′-((2-(2-hydroxypropan-2-yl)-1H-imidazol-1-yl)methyl)-5-propyl-[1,1′-biphenyl]-2-yl)sulfonyl)amide]
5.64 nM	–	–	CCCCOC(=O)NS(=O)(=O)c1ccc(CC(C)C)cc1-c1ccc(Cn2ccnc2C2CC2)cc1 [Example 38A, Butyl ((5-isobutyl-4′-((2-(cyclopropan-2-yl)-1H-imidazol-1-yl)methyl)-[1,1′-biphenyl]-2-yl)sulfonyl)carbamate]
4.8 nM	–	–	COC(=O)NS(=O)(=O)c1ccc(CC(C)C)cc1-c1ccc(Cn2ccnc2C2CC2)cc1 [Example 39A, Methyl ((5-isobutyl-4′-((2-(cyclopropan-2-yl)-1H-imidazol-1-yl)methyl)-[1,1′-biphenyl]-2-yl)sulfonyl)carbamate]
2.22 nM	–	–	CCCCOC(=O)NS(=O)(=O)c1ccc(CC(C)C)cc1-c1ccc(Cn2ccnc2C(C)C)cc1 [Example 37A, Butyl ((5-isobutyl-4′-((2-(isopropan-2-yl)-1H-imidazol-1-yl)methyl)-[1,1′-biphenyl]-2-yl)sulfonyl)carbamate]
9.62 nM	–	–	CCCCOC(=O)NS(=O)(=O)c1sc(CC(C)C)cc1-c1ccc(Cn2ccnc2C(C)(C)O)cc1 [Example 40A]

The remaining lines, values behind:

Structure (SMILES)	Ki (human AT2R)	Ki (human AT1R)	Stability in liver microsomes HLM [1]
COC(=O)NS(=O)(=O)c1sc(CC(C)C)cc1-c1ccc(Cn2ccnc2C(C)(C)O)cc1 [Example 41]	3.08 nM	–	–
CCCCOC(=O)NS(=O)(=O)c1sc(CCC)nc1-c1ccc(Cn2ccnc2C(C)(C)F)cc1 [Example 45, Butyl ((4-(4-((2-(2-fluoropropan-2-yl)-1H-imidazol-1-yl)methyl)phenyl)-2-propylthiazol-5-yl)sulfonyl)carbamate]	> 1000 nM	–	–
CCCc1nc(-c2ccc(Cn3ccnc3C(C)O)cc2)c(S(=O)(=O)NC(=O)OC)s1 (centres unmarked) [Example 25, Methyl ((4-(4-((2-(1-hydroxyethyl)-1H-imidazol-1-yl)methyl)phenyl)-2-propylthiazol-5-yl)sulfonyl)carbamate]	1600 nM	–	–
COC(=O)NS(=O)(=O)c1sc(CC(C)C)nc1-c1ccc(Cn2ccnc2C(C)O)cc1 (centres unmarked) [Example 23, Methyl ((4-(4-((2-(1-hydroxyethyl)-1H-imidazol-1-yl)methyl)phenyl)-2-isobutylthiazol-5-yl)sulfonyl)carbamate]	–	–	>60 min
CCCCOC(=O)NS(=O)(=O)c1ccc(CC(C)C)cc1-c1ccc(Cn2ccnc2-c2nccs2)cc1 [Example 35B, Potassium (butoxycarbonyl) ((5-isobutyl-4′-((2-(thiazol-2-yl)-1H-imidazolyl)methyl)-[1,1′-biphenyl]-2-yl)sulfonyl)amide]	6.7 nM	7000 nM	–
CCCCOC(=O)NS(=O)(=O)c1sc(CC(C)C)cc1-c1ccc(Cn2ccnc2C(C)(C)F)cc1 [Example 42]	1.66 nM	–	–
COC(=O)NS(=O)(=O)c1sc(CC(C)C)nc1-c1ccc(Cn2ccnc2C(C)(C)F)cc1 [Example 48, Methyl ((4-(4-((2-(2-fluoropropan-2-yl)-1H-imidazol-1-yl)methyl)phenyl)-2-isobutylthiazol-5-yl)sulfonyl)carbamate]	475 nM	–	–
CCCCOC(=O)NS(=O)(=O)c1sc(CCC)nc1-c1ccc(Cn2ccnc2C(C)C)cc1 [Example 15, Butyl ((4-(4-((2-isopropyl-1H-imidazol-1-yl)methyl)phenyl)-2-propylthiazol-5-yl)sulfonyl)carbamate]	39 nM	–	>60 min
CCCCOC(=O)NS(=O)(=O)c1sc(CC(C)C)nc1-c1ccc(Cn2ccnc2C(C)(C)F)cc1 [Example 47, Butyl ((4-(4-((2-(2-fluoropropan-2-yl)-1H-imidazol-1-yl)methyl)phenyl)-2-isobutylthiazol-5-yl)sulfonyl)carbamate]	56 nM	–	–
CCCc1nc(-c2ccc(Cn3ccnc3C(C)(C)C)cc2)c(S(=O)(=O)NC(=O)OC)s1 [Example 5, Methyl ((4-(4-((2-(tert-butyl)-1H-imidazol-1-yl)methyl)phenyl)-2-propylthiazol-5-yl)sulfonyl)carbamate]	190 nM	~1000 nM	–
CCCCOC(=O)NS(=O)(=O)c1sc(CCC)nc1-c1ccc(Cn2ccnc2C(C)(C)C)cc1 [Example 6, Butyl ((4-(4-((2-(tert-butyl)-1H-imidazol-1-yl)methyl)phenyl)-2-propylthiazol-5-yl)sulfonyl) carbamate]	71 nM	~1000 nM	–
CCCc1nc(-c2ccc(Cn3ccnc3C3CC3)cc2)c(S(=O)(=O)NC(=O)OC)s1 [Example 28, Methyl ((4-(4-((2-cyclopropyl-1H-imidazol-1-yl)methyl)phenyl)-2-propylthiazol-5-yl)sulfonyl)carbamate]	274 nM	20000 nM	–
CCCc1nc(-c2ccc(Cn3ccnc3C(C)(C)F)cc2)c(S(=O)(=O)NC(=O)OC)s1 [Example 46, Methyl ((4-(4-((2-(2-fluoropropan-2-yl)-1H-imidazol-1-yl)methyl)phenyl)-2-propylthiazol-5-yl)sulfonyl)carbamate]	> 1000 nM	–	–
COC(=O)NS(=O)(=O)c1sc(CC(C)C)cc1-c1ccc(Cn2ccnc2C(C)(C)F)cc1 [Example 43]	3.74 nM	–	–
CCCCOC(=O)NS(=O)(=O)c1sc(CCC)nc1-c1ccc(Cn2ccnc2C2CC2)cc1 [Example 29, Butyl ((4-(4-((2-cyclopropyl-1H-imidazol-1-yl)methyl)phenyl)-2-propylthiazol-5-yl)sulfonyl)carbamate]	36 nM	15000 nM	–
COC(=O)NS(=O)(=O)c1sc(CC(C)C)nc1-c1ccc(Cn2ccnc2C2CC2)cc1 [Example 26, Methyl ((4-(4-((2-cyclopropyl-1H-imidazol-1-yl)methyl)phenyl)-2-isobutylthiazol-5-yl)sulfonyl)carbamate]	99 nM	13000 nM	–
COC(=O)NS(=O)(=O)c1sc(CC(C)C)nc1-c1ccc(Cn2ccnc2C(C)C)cc1 [Example 20, Methyl ((2-isobutyl-4-(4-((2-isopropyl-1H-imidazol-1-yl)methyl)phenyl)thiazol-5-yl)sulfonyl)carbamate]	27 nM	–	>60 min
CCCCOC(=O)NS(=O)(=O)c1ccc(CC(C)C)cc1-c1ccc(Cn2ccnc2C(C)(C)C)cc1 [Example 2A, Butyl ((4′-((2-(tert-butyl)-1H-imidazol-1-yl)methyl)-5-isobutyl-[1,1′-biphenyl]-2-yl)sulfonyl)carbamate]	15 nM	~10000 nM	–
CCCCOC(=O)[N-]S(=O)(=O)c1ccc(CCC)cc1-c1ccc(Cn2ccnc2C(C)(C)O)cc1.[K+] [Example 31B, Potassium (butoxycarbonyl) ((4′-((2-(2-hydroxypropan-2-yl)-1H-imidazol-1-yl)methyl)-5-propyl-[1,1′-biphenyl]-2-yl)sulfonyl)amide]	–	–	20 min
CCCCOC(=O)NS(=O)(=O)c1sc(CC(C)C)nc1-c1ccc(Cn2ccnc2C2CC2)cc1 [Example 27, Butyl ((4-(4-((2-cyclopropyl-1H-imidazol-1-yl)methyl)phenyl)-2-isobutylthiazol-5-yl)sulfonyl)carbamate]	11 nM	8000 nM	–
COC(=O)NS(=O)(=O)c1ccc(CC(C)C)cc1-c1ccc(Cn2ccnc2C(C)C)cc1 [Example 36, Methyl ((5-isobutyl-4′-((2-(isopropan-2-yl)-1H-imidazol-1-yl)methyl)-[1,1′-biphenyl]-2-yl)sulfonyl)carbamate]	3.26 nM	–	–
COCCOC(=O)NS(=O)(=O)c1sc(CC(C)C)cc1-c1ccc(Cn2ccnc2C(C)(C)C)cc1 [Example 44]	2.54 nM	–	–
CCCCOC(=O)NS(=O)(=O)c1sc(CCC)nc1-c1ccc(Cn2ccnc2-c2nccs2)cc1 [Example 21, Butyl ((2-propyl-4-(4-((2-(thiazol-2-yl)-1H-imidazol-1-yl)methyl)phenyl)thiazol-5-yl)sulfonyl)carbamate]	350 nM	1000 nM	–
